“And” between values parts separate entries of the source, which are not always exact repeats. Equal entries are not always repeated. Where two headings read alike, the source gives them in different places.
Experiment: Furathiocarb biotransformation kinetics in individual human hepatic microsomes (10 donors)
Assay type: in vitro ADME
Conditions: for Km: human
Description: The incubation mixture (ﬁnal volume of 200 µl of 0.1 M phosphate buffer) contained 50 and 100 µM furathiocarb, 0.15 mg pooled liver microsomal protein (n = 10), and 1 mM NADPH. The reaction was initiated by NADPH after a 2 min pre-incubation at + 37 °C and was incubated for 30 min at + 37 °C. The reaction stopped with ice-cold acetonitrile containing an internal standard.
Enzyme kinetic parameters of both the microsomal samples and rCYP enzymes were measured. The incubation mixture contained furathiocarb (2.5, 10, 25, 50, 150 and 300 µM). Incubation times were 20 and 30 min for microsomal samples and rCYPs, respectively. Otherwise incubation mixtures and methods were the same as in metabolite identification. The rate of sum of furathiocarb metabolite formation was linear at least up to 0.15 mg protein/ml and 30 min incubation time in the standard experimental conditions.
The standard incubation mixture contained 50 and 100 µM furathiocarb, 0.15 mg pooled liver microsomal protein (n = 10), and 1 mM NADPH in a ﬁnal volume of 200 µl of 0.1 M phosphate buffer (pH 7.4). Furathiocarb was prepared once a week in dimethylsulfoxide (DMSO; ﬁnal amount in the reaction medium 1.0%). After a 2-min incubation at +37 ◦C in a shaking incubator block, the reaction was started by adding NADPH. The mixture was incubated at +37 ◦C for 30 min and the reaction was stopped with 600 µl of ice-cold acetonitrile containing an internal standard. All incubations were carried out in triplicate.

In the case of CCCCOC(=O)N(C)SN(C)C(=O)Oc1cccc2c1OC(C)(C)C2 [furathiocarb, Furathiocarb], the “CLint, sum of carbofuran metabolic pathway” value (HLM20) is reported as 310.4 µL (mg protein min), the “CLint, sum of furathiocarb oxidation pathways” value (HLM20) is reported as 12.63 µL (mg protein min) and the “Vmax, sum of carbofuran metabolic pathway” value (HLM20) is reported as 19.6 ± 1.7 nmol (mg protein min). The “Vmax, sum of furathiocarb oxidation pathways” value (HLM20) was 4.3 ± 0.8 nmol (mg protein min), the “carbofuran pathway / oxidation pathways (CLint ratio)” value (HLM20) was 24.5 fold and the “CLint, sum of carbofuran metabolic pathway” value (HLM21) was 339.0 µL (mg protein min). The “CLint, sum of furathiocarb oxidation pathways” value (HLM21) was 9.22 µL (mg protein min), the “Vmax, sum of carbofuran metabolic pathway” value (HLM21) was 22.6 ± 2.5 nmol (mg protein min) and the “Vmax, sum of furathiocarb oxidation pathways” value (HLM21) was 4.1 ± 1.1 nmol (mg protein min). For the same molecule, the “carbofuran pathway / oxidation pathways (CLint ratio)” value (HLM21) was 36.8 fold, the “CLint, sum of carbofuran metabolic pathway” value (HLM22) was 619.7 µL (mg protein min) and the “Vmax, sum of carbofuran metabolic pathway” value (HLM22) was 44.5 nmol/ (mg protein min) and 44.5 ± 5.1 nmol/ (mg protein min). The “CLint, sum of carbofuran metabolic pathway” value (HLM23) was 348.6 µL (mg protein min), the “CLint, sum of furathiocarb oxidation pathways” value (HLM23) was 13.48 µL (mg protein min) and the “Vmax, sum of carbofuran metabolic pathway” value (HLM23) was 17.4 ± 1.6 nmol (mg protein min). The “Vmax, sum of furathiocarb oxidation pathways” value (HLM23) was 3.5 ± 7.3 nmol (mg protein min), the “carbofuran pathway / oxidation pathways (CLint ratio)” value (HLM23) was 25.9 fold and the “CLint, sum of carbofuran metabolic pathway” value (HLM24) was 404.5 µL (mg protein min). For the same molecule, the “CLint, sum of furathiocarb oxidation pathways” value (HLM24) was 12.25 µL (mg protein min), the “Vmax, sum of carbofuran metabolic pathway” value (HLM24) was 21.9 ± 2.1 nmol (mg protein min) and the “Vmax, sum of furathiocarb oxidation pathways” value (HLM24) was 5.1 ± 1.3 nmol (mg protein min). For the same molecule, the “carbofuran pathway / oxidation pathways (CLint ratio)” value (HLM24) was 33.0 fold, the “CLint, sum of carbofuran metabolic pathway” value (HLM28) was 779.6 µL (mg protein min) and the “CLint, sum of furathiocarb oxidation pathways” value (HLM28) was 6.75 µL (mg protein min). The “Vmax, sum of carbofuran metabolic pathway” value (HLM28) was 43.6 ± 4.7 nmol (mg protein min), the “Vmax, sum of furathiocarb oxidation pathways” value (HLM28) was 11.5 nmol/ (mg protein min) and 11.5 ± 6.4 nmol/ (mg protein min) and the “carbofuran pathway / oxidation pathways (CLint ratio)” value (HLM28) was 115 fold and 115.4 fold. For the same molecule, the “CLint, sum of carbofuran metabolic pathway” value (HLM29) was 378.2 µL (mg protein min), the “CLint, sum of furathiocarb oxidation pathways” value (HLM29) was 10.73 µL (mg protein min) and the “Vmax, sum of carbofuran metabolic pathway” value (HLM29) was 24.3 ± 2.5 nmol (mg protein min). For the same molecule, the “Vmax, sum of furathiocarb oxidation pathways” value (HLM29) was 5.3 ± 1.4 nmol (mg protein min), the “carbofuran pathway / oxidation pathways (CLint ratio)” value (HLM29) was 35.2 fold and the “CLint, sum of carbofuran metabolic pathway” value (HLM30) was 701.2 µL (mg protein min). The “CLint, sum of furathiocarb oxidation pathways” value (HLM30) was 10.99 µL (mg protein min), the “Vmax, sum of carbofuran metabolic pathway” value (HLM30) was 18.2 ± 1.8 nmol (mg protein min) and the “Vmax, sum of furathiocarb oxidation pathways” value (HLM30) was 5.1 ± 1.3 nmol (mg protein min). The “carbofuran pathway / oxidation pathways (CLint ratio)” value (HLM30) was 64 fold and 63.8 fold, the “CLint, sum of carbofuran metabolic pathway” value (HLM31) was 244 µl/ (mg protein min) and 244.3 µl/ (mg protein min) and the “CLint, sum of furathiocarb oxidation pathways” value (HLM31) was 7.0 µl/ (mg protein min) and 7.00 µl/ (mg protein min). The “Vmax, sum of carbofuran metabolic pathway” value (HLM31) was 15.5 nmol/ (mg protein min) and 15.5 ± 1.1 nmol/ (mg protein min), the “Vmax, sum of furathiocarb oxidation pathways” value (HLM31) was 1.7 nmol/ (mg protein min) and 1.7 ± 0.3 nmol/ (mg protein min) and the “carbofuran pathway / oxidation pathways (CLint ratio)” value (HLM31) was 34.9 fold. The “CLint, sum of carbofuran metabolic pathway” value (HLM32) was 399.9 µL (mg protein min), the “CLint, sum of furathiocarb oxidation pathways” value (HLM32) was 13.04 µL (mg protein min) and the “Vmax, sum of carbofuran metabolic pathway” value (HLM32) was 15.5 nmol/ (mg protein min) and 15.5 ± 1.4 nmol/ (mg protein min). For the same molecule, the “Vmax, sum of furathiocarb oxidation pathways” value (HLM32) was 3.7 ± 0.6 nmol (mg protein min), the “carbofuran pathway / oxidation pathways (CLint ratio)” value (HLM32) was 30.6 fold and the Km (pH 7.4, HLM20, read-out: Km, sum of carbofuran metabolic pathway) was 63.2 ± 16.3 µM. The Km (pH 7.4, HLM20, read-out: Km, sum of furathiocarb oxidation pathways) was 343 ± 128 µM, the Km (pH 7.4, HLM21, read-out: Km, sum of carbofuran metabolic pathway) was 66.7 ± 20.6 µM and the Km (pH 7.4, HLM21, read-out: Km, sum of furathiocarb oxidation pathways) was 453 ± 215 µM. The Km (pH 7.4, HLM22, read-out: Km, sum of carbofuran metabolic pathway) was 71.8 ± 21.7 µM, the Km (pH 7.4, HLM23, read-out: Km, sum of carbofuran metabolic pathway) was 50 ± 14.1 µM and the Km (pH 7.4, HLM23, read-out: Km, sum of furathiocarb oxidation pathways) was 260 ± 117 µM. The Km (pH 7.4, HLM24, read-out: Km, sum of carbofuran metabolic pathway) was 54.3 ± 16.1 µM, the Km (pH 7.4, HLM24, read-out: Km, sum of furathiocarb oxidation pathways) was 410 ± 197 µM and the Km (pH 7.4, HLM28, read-out: Km, sum of carbofuran metabolic pathway) was 55.8 ± 18 µM. For the same molecule, the Km (pH 7.4, HLM28, read-out: Km, sum of furathiocarb oxidation pathways) was 1710 ± 852 µM, the Km (pH 7.4, HLM29, read-out: Km, sum of carbofuran metabolic pathway) was 64.2 ± 18.9 µM and the Km (pH 7.4, HLM29, read-out: Km, sum of furathiocarb oxidation pathways) was 495 ± 237 µM. The Km (pH 7.4, HLM30, read-out: Km, sum of carbofuran metabolic pathway) was 25.9 ± 9.5 µM, the Km (pH 7.4, HLM30, read-out: Km, sum of furathiocarb oxidation pathways) was 456 ± 208 µM and the Km (pH 7.4, HLM31, read-out: Km, sum of carbofuran metabolic pathway) was 63.3 ± 13.4 µM. For the same molecule, the Km (pH 7.4, HLM31, read-out: Km, sum of furathiocarb oxidation pathways) was 239 ± 79.5 µM, the Km (pH 7.4, HLM32, read-out: Km, sum of carbofuran metabolic pathway) was 38.8 ± 11.3 µM and the Km (pH 7.4, HLM32, read-out: Km, sum of furathiocarb oxidation pathways) was 280 ± 102 µM. For the same molecule, the “Ratio carbofuran metabolic pathway / furathiocarb oxidation pathway” value (range in 10-donor panel of hepatic microsomes) was 24- to 115 fold.

Reference: PMC8989696, “Characterization of furathiocarb metabolism in in-vitro human liver microsomes and recombinant cytochrome P450 enzymes” (Toxicology Reports, 2022)
